“Also recorded” adds a separate entry of the source.
What was measured:
tau hyperphosphorylation = conditions: cited from earlier work
sigma-1 receptor = sigma-1 receptor (Homo sapiens, UniProt Q99720); conditions: cited from earlier work
mice = mice treated with scopolamine, synthetic Aβ oligomer injection, or dizocilpine; cited from earlier work
muscarinic receptor = conditions: cited from earlier work
[1] = target: T1, IRE1 endonuclease activity (Mus musculus, UniProt Q9EQY0); experiment: XBP1 splicing ratio by qPCR in BMDM; assay type: cell-based
T1 construct: We prepared bone marrow derived macrophages (BMDM) from WT and S1R KO mice; endogenous in cells; host or cells: primary mouse bone marrow derived macrophages (WT and S1R KO, C57BL/6J background)
T1 sequence (Q9EQY0 21-977): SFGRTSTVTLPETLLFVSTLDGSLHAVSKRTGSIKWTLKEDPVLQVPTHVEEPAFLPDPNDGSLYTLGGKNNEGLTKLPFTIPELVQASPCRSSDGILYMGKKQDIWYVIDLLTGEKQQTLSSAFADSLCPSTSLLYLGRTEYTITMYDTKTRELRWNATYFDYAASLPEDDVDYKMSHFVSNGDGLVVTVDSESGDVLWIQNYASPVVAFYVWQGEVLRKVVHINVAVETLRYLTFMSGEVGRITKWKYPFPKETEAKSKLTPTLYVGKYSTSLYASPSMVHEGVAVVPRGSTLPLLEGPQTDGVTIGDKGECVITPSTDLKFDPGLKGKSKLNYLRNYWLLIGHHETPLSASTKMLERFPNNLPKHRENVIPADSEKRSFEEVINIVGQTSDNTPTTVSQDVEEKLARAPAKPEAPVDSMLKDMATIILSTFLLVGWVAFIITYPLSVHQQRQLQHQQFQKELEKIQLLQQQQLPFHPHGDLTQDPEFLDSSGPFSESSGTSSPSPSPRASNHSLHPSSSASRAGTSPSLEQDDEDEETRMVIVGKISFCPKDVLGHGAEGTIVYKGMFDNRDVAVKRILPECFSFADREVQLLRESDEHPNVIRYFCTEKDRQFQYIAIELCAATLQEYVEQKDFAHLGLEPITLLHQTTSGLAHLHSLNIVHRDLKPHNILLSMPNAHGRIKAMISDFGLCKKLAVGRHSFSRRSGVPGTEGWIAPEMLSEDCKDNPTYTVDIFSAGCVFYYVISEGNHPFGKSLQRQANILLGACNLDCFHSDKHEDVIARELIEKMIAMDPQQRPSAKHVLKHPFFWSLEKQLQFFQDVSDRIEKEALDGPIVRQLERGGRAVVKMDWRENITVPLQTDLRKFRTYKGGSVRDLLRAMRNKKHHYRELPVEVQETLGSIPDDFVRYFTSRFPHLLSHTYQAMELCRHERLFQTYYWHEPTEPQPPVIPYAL
Protocol: (§1) Tissue culture conditions and Reagents. HEK293 cells, primary lung fibroblasts and BMDM were isolated and maintained as described (41-43). Cells were treated with LPS (Sigma, L4391), 4μ8C (Tocris, 4479), tunicamycin (Tocris, 3516), PD98059 (Medchem Express HY-12028), JSH-23 (Medchem Express, Hy-13982), SP600125 (Medchem Express, HY-12041), cycloheximide (Tocris, 0970), lactacystin (Cayman Chemical, 70980), chloroquine (Fisher, ICN19391925), and STF 083010 (Medchem Express, HY-15845) as described in the text.
cDNA synthesis and quantitative RT-PCR. Total RNA was extracted using an ISOLATE II RNA (Bioline, 52073) and cDNA synthesis was performed with the ISCRIPT™ kit (Bio-Rad, 170-8891). TaqMan Probes were obtained from Life Technologies (GAPDH: Mm99999915_g1; IL-6: Mm00446190_m1; pro-IL-1β: Mm00434228_m1; TNFα: Mm00443258_m1). Primers for IRE1 detection were GCACGUGAAUUGAUAGAGA (SEQ ID NO: 10) and UCUCUAUCAAUUCACGUGC (SEQ ID NO: 11). Primers for the detection of XBP1 were previously published (Lipson et al., 2008). RT-PCR was performed as described previously (Gaultier et al., 2009).
cDNA synthesis and quantitative PCR. Total RNA was extracted using an ISOLATE II RNA kit (Bioline, 52073) and cDNA synthesis was performed with the SENSIFAST™ cDNA synthesis kit (Bioline, BIO-65054). TaqMan Probes were obtained from Thermo Fisher (GAPDH: Mm99999915_g1; IL-6: Mm00446190_m1; pro-IL-1β: Mm00434228_m1; IL10: Mm004396). Primers for the detection of XBP1, IL-8, and actin were previously published (Vandesompele et al., 2002; Kumar & Valdivia, 2008; Girard et al., 2009). qPCR was performed as described previously (Gaultier et al., 2008).

FIP sepsis model mice = experiment: Fecal induced peritonitis (FIP); assay type: in vivo, mouse; conditions: for Survival: 1.5 g/kg fecal slurry
Protocol: Fecal induced peritonitis (FIP). Fecal material was isolated from the caecum of age- and sex-matched WT animals coming from the UVA vivarium for FIGS. 10A-10D and 10L-10R or from Jackson Laboratory for FIGS. 12D-12O, resuspended in saline and passed through a […] strainer to remove large particles. The slurry was prepared fresh for each experiment. Core body temperature was measured and mice were scored with murine sepsis severity scale by two independent, blinded researchers (Shrum et al., 2014). Blood for serum ELISA was collected from facial vein at 3 hours post FIP induction. Where indicated, fluvoxamine in saline was administered intraperitoneally at a dose of 20 mg/kg, and ceftriaxone in saline was given at a dose of 100 mg/kg subcutaneously.

BMDM = experiment: IL-6 ELISA on supernatant of LPS-stimulated BMDM; assay type: cell-based, mouse; conditions: 1 μg/mL LPS, 6 hours; for Difference in LPS-induced IL-6 secretion between WT and S1R KO BMDM: 20 μM JSH-23, 20 μM PD98059, 1 μM SP600125, 5 μM 4μ8C; for LPS-induced IL-6 secretion: WT and S1R KO BMDM, 20 μM JSH-23, 20 μM PD98059, 1 μM SP600125
Protocol: as §1
(§2) ELISA. ELISA for IL-6 and TNFα were performed as previously described (Remick et al., 2002). Antibodies used were: anti-mouse IL-6 MP5-20F3 (Biolegend, 504501) 0.5 μg/mL; biotin anti-mouse IL-6 MP5-32C11 (Biolegend, 504601) 1 μg/mL; anti-mouse TNFα (R&D systems, AF-410-NA) 0.5 μg/mL; biotin anti-mouse TNFα (R&D systems, BAF410) 0.25 μg/mL.
Tissue culture conditions and Reagents. HEK293 mTLR4/MD2/CD14 (Invivogen, 293-mtlr4md2cd14), primary lung fibroblasts, and BMDM were isolated and maintained as described (Zhang et al., 2008; Seluanov et al., 2010). Cells and animals were treated with LPS (Sigma, L4391), 4μ8C (Tocris, 4479), APY-29 (Medchem Express HY-17537), PD98059 (Medchem Express HY-12028), JSH-23 (Medchem Express, HY-13982), SP600125 (Medchem Express, HY-12041), STF 083010 (Medchem Express, HY-15845), Fluvoxamine (Medchem Express, HY-B0103A), and Ceftriaxone (Hospira, NDC: 0409-7337-01), as described in the text.
as §2, with “TNF-α” for “TNFα”

LPS challenged mice = experiment: In vivo LPS (endotoxin) challenge; design: species or system mouse
Protocol: Endotoxin challenge. In vivo endotoxin challenge was performed on mice at 8-12 weeks of age. LPS from E. coli 0111:B4 (Sigma-Aldrich, L2630) was injected intraperitoneally as described in the manuscript. STF 083010 (Medchem Express, HY-15845) was resuspended in 33% Kolliphor-EL (Sigma, C5135) and administered intraperitoneally at 30 mg/kg immediately after and again 24 hours after LPS injection.
Peritoneal contents collection. Three hours after LPS injection, peritoneal cavities were washed with 2.5 mL of ice-cold PBS+5 mM EDTA, and then centrifuged to pellet cells. Supernatants were collected for ELISA, and the remaining cells were washed and stored as previously described (Gaultier et al., 2008).
LPS challenge. In vivo LPS challenge was performed on adult mice (8-12 weeks of age). LPS from E. coli 0111:B4 (Sigma-Aldrich, L2630) was injected intraperitoneally, as described in the manuscript. STF083010 (Medchem Express, HY-15845) was resuspended in 33% Kolliphor-EL (Sigma, C5135) and administered intraperitoneally at 30 mg/kg immediately after and again 24 hours after LPS injection. Fluvoxamine was resuspended in saline and administered at 20 mg/kg as indicated in the text. Blood for serum ELISA was collected from facial vein at the peak serum concentration of TNF-α and IL-6 (Copeland et al., 2005a).
Peritoneal exudates collection. Peritoneal cavities content were collected 3 hours after LPS injection in PBS+5 mM EDTA, then centrifuged to pellet cells. Supernatants were collected for ELISA, and cells were washed and stored as previously described (Gaultier et al., 2008).

HEK293 cells = experiment: Immunoblot for total IRE1 in HEK293 cells overexpressing IRE1 and S1R; assay type: cell-based; conditions: 5 μM lactacystin or 30 μM chloroquine, 6 hours
Excerpt: Western blot. […] Linear level adjustments were applied to entire images to enhance visualization.
Transfection of proteins for overexpression.

[2] = system: heparinized peripheral blood from healthy donors; experiment: Human whole blood stimulation ex vivo with LPS, multiplex cytokine analysis; assay type: cell-based; conditions: 10 ng/mL LPS, 20 μM fluvoxamine, 4 hours
Protocol: Human whole blood stimulation. Study participants were healthy adults (ages 18-45). The study was approved by the Institutional Review Board at the University of Virginia, and all participants signed informed consent before enrollment. Blood was collected into heparinized vacuum tube, then stimulated with 10 ng/mL LPS+/−20 μM fluvoxamine for 4 hours, as described (Thurm & Halsey, 2005). Cytokine concentrations were determined by multiplex analysis.

[3] = treatment 90 min post FIP induction, fluvoxamine 20 mg/kg i.p. and/or ceftriaxone 100 mg/kg s.c.
[4] = LPS 2 mg/kg co-administered with STF 30 mg/kg
[5] = LPS 2 mg/kg, STF 30 mg/kg i.p. at 0 hours and 24 hours
[6] = LPS 6 mg/kg, fluvoxamine 20 mg/kg at the same time as LPS

sigma-1 receptor, sequence (Q99720 whole entry): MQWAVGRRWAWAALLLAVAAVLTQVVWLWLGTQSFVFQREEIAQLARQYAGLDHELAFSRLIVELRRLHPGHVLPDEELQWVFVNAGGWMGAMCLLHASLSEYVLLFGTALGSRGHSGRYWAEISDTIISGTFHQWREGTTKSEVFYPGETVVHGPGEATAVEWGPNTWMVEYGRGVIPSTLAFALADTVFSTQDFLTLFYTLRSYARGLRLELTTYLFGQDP

## CN(C)CC1CCOC1(c1ccccc1)c1ccccc1.Cl (centres unmarked) [ANAVEX® 2-73, tetrahydro-N,N-dimethyl-2,2-diphenyl-3-furanmethanamine hydrochloride]
Tau hyperphosphorylation
  Tau hyperphosphorylation: may block tau hyperphosphorylation
sigma-1 receptor
  Affinity for / binding to sigma-1 receptor (S1R): high nanomolar range
mice
  Memory and neuroprotection effects: memory-preserving and neuroprotective effects
Muscarinic receptor
  Binding to the muscarinic receptor: low micromolar range

## c1cc(Nc2cc(C3CC3)[nH]n2)nc(Nc2ccc3nc[nH]c3c2)n1 [APY29]
[1]; WT vs S1R KO BMDM, activator of IRE1, 6 hours
  XBP1 splicing amounts after forced IRE1 activation: equal in both genotypes

## CO/N=C(\C(=O)N[C@@H]1C(=O)N2C(C(=O)O)=C(CSc3nc(=O)c(=O)[nH]n3C)CS[C@H]12)c1csc(N)n1 [Ceftriaxone]
FIP sepsis model mice; [3]
  Survival: enhancing survival

## Cc1ccc(NCCCc2ccccc2)c(N)c1 [JSH-23]
BMDM
  Difference in LPS-induced IL-6 secretion between WT and S1R KO BMDM: did not eliminate the difference
  LPS-induced IL-6 secretion: reduced LPS-induced IL-6 secretion

## COc1cccc(-c2cc(=O)c3ccccc3o2)c1N [PRESENTLY DISCLOSED 98059]
BMDM
  Difference in LPS-induced IL-6 secretion between WT and S1R KO BMDM: without altering the ability of S1R KO BMDM to produce more IL-6
  LPS-induced IL-6 secretion: significant decrease in IL-6 production

## O=S(=O)(N=Cc1c(O)ccc2ccccc12)c1cccs1 [STF, N-[(2-Hydroxy-1-naphthalenyl)methylene]-2-thiophenesulfonamide]
LPS challenged mice; [4]
  Median survival of S1R KO mice: 113 h
  Mortality of S1R KO mice: 62.5%
LPS challenged mice; [5]
  LPS induced mortality / survival of S1R KO mice: largely rescued; also recorded: spared KO mice from LPS induced mortality; also recorded: clear benefit in S1R KO survival
  Survival of WT mice: did not significantly affect the survival of WT mice
LPS challenged mice; S1R KO mice, LPS 2 mg/kg, STF 30 mg/kg i.p., serum 3 hours after LPS
  Serum IL-6: significantly decreased serum IL-6; also recorded: trend toward decreased IL-6
LPS challenged mice; S1R KO mice, LPS 2 mg/kg, STF 30 mg/kg, 3 hours after LPS
  IL-6 in the peritoneal exudate: corrected by STF treatment
BMDM; STF 083010 (60 μM) compared with 4μ8C (5 μM), FIG. 7A
  Blocking IL-6 secretion in S1R KO BMDM stimulated with LPS: as effective as 4μ8C
BMDM; BMDM, 20 μM STF
  IRE1 inhibitor effectiveness (IL-6 ELISA, FIG. 11C): effective IRE1 inhibitor

## CCN(CC)CCCC(C)Nc1ccnc2cc(Cl)ccc12 (centres unmarked) [chloroquine]
HEK293 cells
  Rescue of IRE1 protein levels in the presence of S1R overexpression: Neither lactacystin nor chloroquine treatment could rescue IRE1 protein levels

## COCCCC/C(=N\OCCN)c1ccc(C(F)(F)F)cc1 [fluvoxamine]
sigma-1 receptor
  Affinity for / binding to sigma-1 receptor (S1R): low-nanomolar affinity; also recorded: high affinity
FIP sepsis model mice; therapeutic fluvoxamine 30 min post FIP induction
  Survival: significantly enhanced survival
FIP sepsis model mice; [3]
  Survival: as efficacious in enhancing survival as Ceftriaxone
FIP sepsis model mice; C57BL/6J, 24 hours after FIP induction, fluvoxamine 30 min post FIP induction
  Rectal temperature: improved
FIP sepsis model mice; C57BL/6J, fluvoxamine 30 min post FIP induction
  Clinical score (total murine sepsis score): improved
[2]
  Breadth of modulation of inflammatory mediators (FIG. 14): limited to a subset of inflammatory mediators
  IL-8 production: decreased
  LPS-induced IL-1β: significantly reduced
  LPS-induced IL-6: significantly reduced
  LPS-induced IL-12 p40: significantly reduced
LPS challenged mice; C57BL/6J, 24 hours after LPS, fluvoxamine 90 min post LPS challenge
  Rectal temperature: improved
LPS challenged mice; C57BL/6J, LPS 6 mg/kg, fluvoxamine 90 min post LPS challenge
  Clinical score (total murine sepsis score): improved
LPS challenged mice; C57BL/6J, LPS 6 mg/kg, therapeutic fluvoxamine 90 min post LPS challenge
  Survival: significantly enhanced survival
LPS challenged mice; [6]
  Mortality of S1R KO animals: no significant effect
  Mortality of WT mice: significantly protected WT mice from mortality
  Serum IL-6 in S1R KO animals: no significant effect
LPS challenged mice; LPS 6 mg/kg, fluvoxamine 20 mg/kg at the same time as LPS, 3 hours after LPS
  Serum IL-6 in WT mice: reduced serum IL-6

## CC(=O)N[C@@H](CSC(=O)[C@]1([C@@H](O)C(C)C)NC(=O)[C@H](C)[C@@H]1O)C(=O)O [lactacystin]
HEK293 cells
  Rescue of IRE1 protein levels in the presence of S1R overexpression: Neither lactacystin nor chloroquine treatment could rescue IRE1 protein levels

## tunicamycin
[1]; S1R KO vs WT BMDM, 5 μM tunicamycin, 6 hours
  XBP1 splicing after tunicamycin: elevated XBP1 splicing in S1R KO BMDM
